Results reported in ChEMBL document CHEMBL5625269, “Design, synthesis, and biological evaluation of novel benzo[6,7]indolo[3,4-c]isoquinolines as anticancer agents with topoisomerase I inhibition” (2024).
Activity calls are given as the source filed them. The calls are words filed in the database; no cut-off is given here.

Experiments:
MCF7 = experiment: Growth inhibition of human MCF7 cells assessed as reduction in cell viability; type: functional
[1] = molecular target: T1, DNA topoisomerase 1 (Homo sapiens) (UniProt P11387); experiment: Inhibition of human DNA topoisomerase 1 assessed as reduction in pBR322 DNA relaxation at 20 to 100 uM by agarose gel electrophoresis method; conditions: dose 20-100 µM
T1 sequence (whole entry): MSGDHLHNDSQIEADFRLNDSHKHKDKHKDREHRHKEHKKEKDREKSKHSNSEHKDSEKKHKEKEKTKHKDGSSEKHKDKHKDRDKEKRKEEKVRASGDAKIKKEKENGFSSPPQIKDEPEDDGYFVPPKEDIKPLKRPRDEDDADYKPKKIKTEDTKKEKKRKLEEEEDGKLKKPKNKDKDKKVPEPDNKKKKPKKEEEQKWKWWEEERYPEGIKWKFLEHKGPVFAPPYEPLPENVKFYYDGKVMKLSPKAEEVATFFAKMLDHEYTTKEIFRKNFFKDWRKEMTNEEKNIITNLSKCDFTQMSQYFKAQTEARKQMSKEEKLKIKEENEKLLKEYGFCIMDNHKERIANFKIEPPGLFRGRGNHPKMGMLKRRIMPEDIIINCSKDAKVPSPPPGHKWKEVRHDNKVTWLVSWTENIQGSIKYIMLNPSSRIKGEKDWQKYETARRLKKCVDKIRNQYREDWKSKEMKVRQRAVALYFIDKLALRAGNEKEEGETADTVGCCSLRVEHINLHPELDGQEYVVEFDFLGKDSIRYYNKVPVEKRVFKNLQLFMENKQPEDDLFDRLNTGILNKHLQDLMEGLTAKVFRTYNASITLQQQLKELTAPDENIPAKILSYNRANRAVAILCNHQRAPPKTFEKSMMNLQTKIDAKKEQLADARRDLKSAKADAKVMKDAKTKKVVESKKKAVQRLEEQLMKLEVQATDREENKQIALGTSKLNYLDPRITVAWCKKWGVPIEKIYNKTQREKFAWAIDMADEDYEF

U-251 = experiment: Growth inhibition of human U-251 cells assessed as reduction in cell viability; type: functional
LOX IMVI = experiment: Growth inhibition of human LOX IMVI cells assessed as reduction in cell viability; type: functional
A549 = experiment: Growth inhibition of human A549 cells assessed as reduction in cell viability; type: functional
MKN-28 = experiment: Growth inhibition of human MKN-28 cells assessed as reduction in cell viability; type: functional
HCT-116 = experiment: Growth inhibition of human HCT-116 cells assessed as reduction in cell viability; type: functional
ACHN = experiment: Growth inhibition of human ACHN cells assessed as reduction in cell viability; type: functional
SK-OV-3 = experiment: Growth inhibition of human SK-OV-3 cells assessed as reduction in cell viability; type: functional
DU-145 = experiment: Growth inhibition of human DU-145 cells assessed as reduction in cell viability; type: functional
[2] = molecular target: T1, DNA topoisomerase 1 (Homo sapiens); experiment: Inhibition of human DNA topoisomerase 1 assessed as reduction in pBR322 DNA relaxation at 20 to 100 uM in presence of ethidium bromide by agarose gel electrophoresis method; conditions: dose 20-100 µM

SMILES	GI50 (MCF7) [nM]	inhibition [1]	GI50 (U-251) [nM]	GI50 (A549) [nM]	GI50 (MKN-28) [nM]	GI50 (HCT-116) [nM]	GI50 (ACHN) [nM]	GI50 (SK-OV-3) [nM]	GI50 (DU-145) [nM]	inhibition [2]	GI50 (LOX IMVI) [nM]
COc1cc2c(cc1O)c[n+]([O-])c1c3ccc4cc(O)ccc4c3n(C)c21	66	–	145	3090	3550	209	37	1440	62	Active	50
COc1cc2c(cnc3c4ccc5cc(O)ccc5c4n(CCCn4ccnc4)c23)cc1O	40	–	38	15800	1950	324	331	9550	141	inactive	44
COc1cc2c(ccc3c4c(=O)oc5cc(O)c(OC)cc5c4n(C)c23)cc1O	9.6	–	1.3	1.8	33	8.8	< 1	9.4	2.5	–	2.6
COc1cc2c(cnc3c4ccc5cc(O)ccc5c4n(CCN(C)C)c23)cc1O	13	Active	< 10	380	912	65	20	380	< 10	Active	< 10

More lines, main results first:

GI50 (MCF7) [nM]	inhibition [1]	GI50 (U-251) [nM]	GI50 (A549) [nM]	GI50 (MKN-28) [nM]	GI50 (HCT-116) [nM]	GI50 (ACHN) [nM]	GI50 (SK-OV-3) [nM]	GI50 (DU-145) [nM]	inhibition [2]	SMILES	GI50 (LOX IMVI) [nM]
263	Active	708	1550	562	309	1100	1820	759	–	COc1cc2c(cnc3c4ccc5cc(O)ccc5c4n(CCCN4CCC(N5CCCCC5)CC4)c23)cc1O	363
105	–	26	447	316	115	32	537	32	–	COc1cc2c(cnc3c4ccc5cc(O)ccc5c4n(CCCCl)c23)cc1O	25
< 10	Active	< 10	49	19	< 10	< 10	18	< 10	Active	COc1cc2c(cnc3c4ccc5cc(O)ccc5c4n(CCCN4CCOCC4)c23)cc1O	< 10
437	–	123	631	437	200	257	759	282	–	COc1cc2c(cnc3c4ccc5cc(O)ccc5c4n(C)c23)cc1O	178
